Measurements: patent US8691816B2, “Pyrrole inhibitors of S-nitrosoglutathione reductase as therapeutic agents” (N30 Pharmaceuticals, Inc., priority 2008, dated 2014)
Like-named read-outs stand apart in the source and are kept apart here.

Experiments:
[1] = tested on: mouse model of ovalbumin (OVA)-induced asthma; assay: Experimental asthma model: eosinophil infiltrate in bronchioalveolar lavage fluid (BALF); type: in vivo
Description: (§1) A mouse model of ovalbumin (OVA)-induced asthma was used to screen GSNOR inhibitors for efficacy against methacholine (MCh)-induced bronchoconstriction/airway hyper-reactivity. This is a widely used and well characterized model that presents with an acute, allergic asthma phenotype with similarities to human asthma. Efficacy of GSNOR inhibitors were assessed using a prophylactic protocol in which GSNOR inhibitors were administered prior to challenge with MCh. Bronchoconstriction in response to challenge with increasing doses of MCh was assessed using whole body plethysmography (Penh; Buxco). The amount of eosinophil infiltrate into the bronchioalveolar lavage fluid (BALF) was also determined as a measure of lung inflammation. The effect of GSNOR inhibitors were compared to vehicles and to Combivent (inhaled; IH) as the positive control.
(§2) OVA (500 μg/ml) in PBS was mixed with equal volumes of 10% (w/v) aluminum potassium sulfate in distilled water and incubated for 60 min. at room temperature after adjustment to pH 6.5 using 10 N NaOH. After centrifugation at 750×g for 5 min, the OVA/alum pellet was resuspended to the original volume in distilled water. Mice received an intraperitoneal (IP) injection of 100 μg OVA (0.2 mL of 500 μg/mL in normal saline) complexed with alum on day 0. Mice were anesthetized by IP injection of a 0.2-mL mixture of ketamine and xylazine (0.44 and 6.3 mg/mL, respectively) in normal saline and were placed on a board in the supine position. Two hundred fifty micrograms (100 μl of a 2.5 mg/ml) of OVA (on day 8) and 125 μg (50 μl of 2.5 mg/ml) OVA (on days 15, 18, and 21) were placed on the back of the tongue of each animal.
After measurement of airway hyper-reactivity, the mice were exsanguination by cardiac puncture, and then BALF was collected from either both lungs or from the right lung after tying off the left lung at the mainstem bronchus. Total BALF cells were counted from a 0.05 mL aliquot, and the remaining fluid is centrifuged at 200×g for 10 min at 4° C. Cell pellets were resuspended in saline containing 10% BSA with smears made on glass slides. Eosinophils were stained for 5 min. with 0.05% aqueous eosin and 5% acetone in distilled water, rinsed with distilled water, and counterstained with 0.07% methylene blue.
(§3) GSNOR inhibitors were reconstituted in phosphate buffered saline (PBS), pH 7.4, at concentrations ranging from 0.00005 to 3 mg/mL. GSNOR inhibitors were administered to mice (10 mL/kg) as a single dose either intravenously (IV) or orally via gavage. Dosing was performed from 30 min. to 24 h prior to MCh challenge. Effect of GSNOR inhibitors were compared to PBS vehicle dosed in the same manner.
Area under the curve values for Penh across baseline, saline, and increasing doses of MCh challenge were calculated using GraphPad Prism 5.0 (San Diego, Calif.) and expressed as a percent of the respective (IV or orally administered) vehicle control. Statistical differences among treatment groups and the respective vehicle control group within each study were calculated using one-way ANOVA, Dunnetts (JMP 8.0, SAS Institute, Cary, N.C.).

[2] = tested on: mouse model of ovalbumin (OVA)-induced asthma; assay: Experimental asthma model: methacholine (MCh)-induced bronchoconstriction/airway hyper-reactivity (Penh) in ovalbumin (OVA)-induced asthma; type: in vivo; conditions: single IV dose 0.1 mg/kg, 48 h prior to MCh, read-out: area under the curve (AUC) for Penh response as percent of vehicle control
[3] = tested on: OVA sensitized mice, methacholine-induced bronchial hyper-reactivity; assay: GSNOR inhibition assay in an in vivo animal model: OVA mouse model of asthma, methacholine challenge, Penh by whole body plethysmograph; conditions: 1 mg/kg, 10 mg/kg or 30 mg/kg intravenously 24 hours prior
Description: In an effort to determine if similar observations would manifest if GSNOR were inhibited pharmacologically by a GSNOR inhibitor, an OVA mouse model (i.e., the wild-type model of Que et al.) was used. In this study, OVA sensitized mice were administered 1 mg/kg, 10 mg/kg or 30 mg/kg of Compound 1 intravenously at 24 hours prior to being placed in a whole body plethysmograph (Buxco Research Systems, Wilmington, N.C.) and provided with fresh air.
Subject animals were then challenged with an aerosol of increasing dosages of the bronchoconstrictive agent methacholine, a pharmacologic agent commonly used in determining the degree of bronchial hyper-reactivity in experimental subjects. In this study mice were exposed to an increasing concentration of methacholine, each dose being presented for 3 minutes, during which time readings were taken. Doses of methacholine were 0 mg/ml, 5 mg/ml, 20 mg/ml, and 50 mg/ml. The degree of bronchial hyper-reactivity was measured as the ‘Enhanced Pause’ (Penh), a unit-less index of airway hyper-reactivity (Dohi et al., Lab Invest. 79(12):1559-1571, 1999).

[4] = tested on: mouse model of ovalbumin (OVA)-induced asthma; assay: Experimental asthma model: methacholine (MCh)-induced bronchoconstriction/airway hyper-reactivity (Penh) in ovalbumin (OVA)-induced asthma; type: in vivo; conditions: for response vs control in vivo at 0.1 mg/kg: single IV dose 0.1 mg/kg; for efficacy against experimental asthma (attenuation of MCh induced bronchoconstriction): administered intravenously (IV); for response vs control in vivo at 1 mg/kg: single IV dose 1 mg/kg; for response vs control in vivo at 30 mg/kg: single oral dose 30 mg/kg; for efficacy against experimental asthma (attenuation of MCh induced bronchoconstriction and pulmonary inflammation): administered intravenously (IV) or orally; for response vs control in vivo at 10 mg/kg: single IV dose 10 mg/kg
Description: as §1, §2
In vivo airway responsiveness to methacholine was measured 24 h after the last OVA challenge in conscious, freely moving, spontaneously breathing mice with whole body plethysmography using a Buxco chamber (Wilmington, N.C.). Mice were challenged with aerosolized saline or increasing doses of methacholine (5, 20 and 50 mg/mL) generated by an ultrasonic nebulizer for 2 min. The degree of bronchoconstriction was expressed as enhanced pause (Penh), a calculated dimensionless value, which correlates with the measurement of airway resistance, impedance, and intrapleural pressure in the same mouse. Penh readings were taken and averaged for 4 min. after each nebulization challenge. Penh was calculated as follows: Penh=[(Te/Tr−1)×(PEF/PIF)], where Te is expiration time, Tr is relaxation time, PEF is peak expiratory flow, and PIF is peak inspiratory flow×0.67 coefficient. The time for the box pressure to change from a maximum to a user-defined percentage of the maximum represents the relaxation time. The Tr measurement begins at the maximum box pressure and ends at 40%.
as §3
Combivent was used as the positive control in all studies. Combivent (Boehringer Ingelheim) was administered to the lung using the inhaler device supplied with the product, but adapted for administration to mice, using a pipet tip. Combivent was administered 48 h, 24 h, and 1 h prior to MCh challenge. Each puff (or dose) of Combivent provided a dose of 18 μg ipatropium bromide (IpBr) and 103 μg albuterol sulfate or approximately 0.9 mg/kg IpBr and 5 mg/kg albuterol.
Area under the curve values for Penh across baseline, saline, and increasing doses of MCh challenge were calculated using GraphPad Prism 5.0 (San Diego, Calif.) and expressed as a percent of the respective (IV or orally administered) vehicle control.

[5] = single IV dose 1 mg/kg, 24 h prior to MCh
[6] = Mus musculus, 24 h prior to MCh, read-out: area under the curve (AUC) for Penh response as percent of vehicle control
[7] = single oral dose 30 mg/kg, 24 h prior to MCh

SMILES | efficacy against experimental asthma (attenuation of MCh induced bronchoconstriction) [4] | reduction of eosinophil infiltration into the BALF [1, 5] | response vs control in vivo at 1 mg/kg [4, 6] | reduction of eosinophil infiltration into the BALF [1, 7] | response vs control in vivo at 30 mg/kg [4, 6] | efficacy against experimental asthma (attenuation of MCh induced bronchoconstriction and pulmonary inflammation) [4] | further results
Cc1cc(C(N)=O)ccc1-n1c(CCC(=O)O)ccc1-c1ccc(-n2ccnc2)cc1 [Compound 1, 3-(5-(4-(1H-imidazol-1-yl)phenyl)-1-(4-carbamoyl-2-methyl-phenyl)-1H-pyrrol-2-yl)propanoic acid] | efficacious | – | – | – | – | – | reduction of eosinophil infiltration into the BALF ([1]; single IV dose 0.01 mg/kg, 24 h prior to MCh): 98%; response vs control in vivo at 0.1 mg/kg [2]: 64.4 ± 55%; broncho-constrictive responses (Penh) to methacholine challenge compared with vehicle-only dosed animals [3]: lower broncho-constrictive responses; ED50 ([4]; Mus musculus, iv, read-out: ED50, dose demonstrating 50% reduction in Penh response): 0.011 ± 0.003 mg/kg; response vs control in vivo at 0.01 mg/kg ([4]; Mus musculus, single IV dose 0.01 mg/kg, 24 h prior to MCh, read-out: area under the curve (AUC) for Penh response as percent of vehicle control): 42.1 ± 2.8%; response vs control in vivo at 0.1 mg/kg ([4]; Mus musculus, 1 h prior to MCh, read-out: area under the curve (AUC) for Penh response as percent of vehicle control): 76.4 ± 6.6%
Cc1cc(C(N)=O)ccc1-n1c(CCC(=O)O)ccc1-c1ccc(-n2ccnc2C)cc1 [Compound 3, 3-(1-(4-carbamoyl-2-methyl-phenyl)-5-(4-(2-methyl-1H-imidazol-1-yl)phenyl)-1H-pyrrol-2-yl)propanoic acid] | efficacious | 46% | 71 ± 8.6% | – | – | – | –
COc1ccc(-c2ccc(CCC(=O)O)n2-c2ccc(C(N)=O)cc2C)cc1 [Compound 9, 3-(1-(4-carbamoyl-2-methylphenyl)-5-(4-methoxy-phenyl)-1H-pyrrol-2-yl)propanoic acid] | – | 92% | 65.3 ± 5.9% | 100% | 24.6 ± 3% | efficacious | –
Cc1cc(C(N)=O)ccc1-n1c(CCC(=O)O)ccc1-c1ccc(Br)cc1 [Compound 12, 3-(5-(4-bromophenyl)-1-(4-carbamoyl-2-methylphenyl)-1H-pyrrol-2-yl)propanoic acid] | efficacious | – | – | – | – | – | –
COc1cc(Cl)ccc1-c1ccc(CCC(=O)O)n1-c1ccc(C(N)=O)cc1C [Compound 116, 3-(1-(4-carbamoyl-2-methylphenyl)-5-(4-chloro-2-methoxy-phenyl)-1H-pyrrol-2-yl)propanoic acid] | – | 100% | 60.2 ± 7.9% | 100% | 26.7 ± 1.4% | efficacious | reduction of eosinophil infiltration into the BALF ([1]; single IV dose 0.1 mg/kg, 24 h prior to MCh): 79%; reduction of eosinophil infiltration into the BALF ([1]; single IV dose 10 mg/kg, 30 min. prior to MCh): 94%; reduction of eosinophil infiltration into the BALF ([1]; single IV dose 10 mg/kg, 24 h prior to MCh): 100%; response vs control in vivo at 10 mg/kg ([4]; Mus musculus, 0.5 h, 30 min. prior to MCh, read-out: area under the curve (AUC) for Penh response as percent of vehicle control): 35.2 ± 9.3%; response vs control in vivo at 0.1 mg/kg [4, 6]: 64.2 ± 7.6%; response vs control in vivo at 10 mg/kg [4, 6]: 40.7 ± 2.4%
Cc1cc(NS(C)(=O)=O)ccc1-n1c(CCC(=O)O)ccc1-c1ccc(-n2ccnc2C)s1 [Compound 171, 3-(5-(5-(2-methyl-1H-imidazol-1-yl)thiophen-2-yl)-1-(2-methyl-4-(methyl-sulfonamido)-phenyl)-1H-pyrrol-2-yl)propanoic acid] | efficacious | 63% | 78.7 ± 8.1% | – | – | – | –
